In brackets after ≈: the same amount, converted by molar mass. Activity calls are given as the source filed them. No cut-off for these calls is given here.
What was measured:
NCI-H1650 = assay: Cytotoxicity against human NCI-H1650 cells after 72 hrs by MTT assay; type: functional, cell-based; conditions: NCI-H1650, 72 h
[1] = Cytotoxicity against human HCT116 cells after 72 hrs by MTT assay; type: functional, cell-based; conditions: HCT-116, 72 h
[2] = Inhibition of alpha glucosidase (unknown origin) at 100 uM preincubated for 15 mins followed by p-nitrophenyl-alpha-D-glucopyranoside addition measured after 30 mins by spectrophotometric analysis; conditions: Homo sapiens
[3] = Cytotoxicity against human BCG823 cells after 72 hrs by MTT assay; type: functional, cell-based; conditions: BCG823, 72 h
[4] = Inhibition of alpha glucosidase (unknown origin) preincubated for 15 mins followed by p-nitrophenyl-alpha-D-glucopyranoside addition measured after 30 mins by spectrophotometric analysis; design: species or system Homo sapiens
Rattus norvegicus [5] = assay: Hypoglycemic activity in diabetic rat model assessed as decrease in blood glucose level at 100 mg/kg, ig administered for 12 days measured on sixth day of compound dosing by glucometer relative to control; type: functional; conditions: po, 288 h
Rattus norvegicus [6] = assay: Hypoglycemic activity in diabetic rat model assessed as decrease in blood glucose level at 100 mg/kg, ig administered for 12 days measured on twelfth day by glucometer relative to control; type: functional; conditions: po, 288 h
Rattus norvegicus [7] = assay: Hypoglycemic activity in diabetic rat model assessed as decrease in blood glucose level at 100 mg/kg, ig administered for 12 days measured on ninth day of compound dosing by glucometer relative to control; type: functional; conditions: po, 288 h
Rattus norvegicus [8] = assay: Hypoglycemic activity in diabetic rat model assessed as decrease in blood glucose level at 100 mg/kg, ig administered for 12 days measured on third day of compound dosing by glucometer relative to control; type: functional; conditions: po, 288 h
Rattus norvegicus [9] = assay: Hypoglycemic activity in diabetic rat model assessed as blood glucose level at 360 mg/kg, ig administered for 12 days measured on day 12 by glucometer (reference value: 21.95 +/- 2.83 mmol/l); type: functional
Rattus norvegicus [10] = assay: Hypoglycemic activity in diabetic rat model assessed as blood glucose level at 360 mg/kg, ig administered for 12 days measured on day 9 of compound dosing by glucometer (reference value: 21.95 +/- 2.83 mmol/l); type: functional
Rattus norvegicus [11] = assay: Hypoglycemic activity in diabetic rat model assessed as blood glucose level at 360 mg/kg, ig administered for 12 days measured on day 6 of compound dosing by glucometer (reference value: 21.95 +/- 2.83 mmol/l); type: functional
Rattus norvegicus [12] = assay: Hypoglycemic activity in diabetic rat model assessed as decrease in blood glucose level at 360 mg/kg, ig administered for 12 days measured on third day of compound dosing by glucometer relative to control; type: functional; conditions: po, 288 h
Rattus norvegicus [13] = assay: Hypoglycemic activity in diabetic rat model assessed as decrease in blood glucose level at 360 mg/kg, ig administered for 12 days measured on sixth day of compound dosing by glucometer relative to control; type: functional; conditions: po, 288 h
Rattus norvegicus [14] = assay: Hypoglycemic activity in diabetic rat model assessed as decrease in blood glucose level at 20 mg/kg, ig administered for 12 days measured on twelfth day by glucometer relative to control; type: functional; conditions: po, 288 h
Rattus norvegicus [15] = assay: Hypoglycemic activity in diabetic rat model assessed as decrease in blood glucose level at 20 mg/kg, ig administered for 12 days measured on third day of compound dosing by glucometer relative to control; type: functional; conditions: po, 288 h
Rattus norvegicus [16] = assay: Hypoglycemic activity in diabetic rat model assessed as decrease in blood glucose level at 20 mg/kg, ig administered for 12 days measured on sixth day of compound dosing by glucometer relative to control; type: functional; conditions: po, 288 h
Rattus norvegicus [17] = assay: Hypoglycemic activity in diabetic rat model assessed as decrease in blood glucose level at 20 mg/kg, ig administered for 12 days measured on ninth day of compound dosing by glucometer relative to control; type: functional; conditions: po, 288 h
Rattus norvegicus [18] = assay: Hypoglycemic activity in diabetic rat model assessed as decrease in blood glucose level at 360 mg/kg, ig administered for 12 days measured on ninth day of compound dosing by glucometer relative to control; type: functional; conditions: po, 288 h
Rattus norvegicus [19] = assay: Hypoglycemic activity in diabetic rat model assessed as decrease in blood glucose level at 360 mg/kg, ig administered for 12 days measured on twelfth day by glucometer relative to control; type: functional; conditions: po, 288 h
[20] = Noncompetitive inhibition of alpha glucosidase (unknown origin) preincubated for 15 mins followed by p-nitrophenyl-alpha-D-glucopyranoside addition measured after 30 mins by Lineweaver-Burk plot analysis; design: species or system Homo sapiens

Structure (SMILES) | inhibition [2] | IC50 [4] | IC50 (NCI-H1650) | IC50 [1] | IC50 [3] | other results
CCOC(=O)C(C=O)c1ccc(C(F)(F)F)cc1 (configuration not stated) | inactive | – | > 0.01 µg/mL | > 0.01 µg/mL | > 0.01 µg/mL | –
CCOC(=O)C(COC(=O)/C=C/c1ccc(OC)c(OC)c1)c1ccc(C(F)(F)F)cc1 (configuration not stated) | 29.9% | 191 µM | > 0.01 µg/mL | > 0.01 µg/mL | > 0.01 µg/mL | –
CCOC(=O)C(COC(=O)c1ccccc1)c1ccc(C(F)(F)F)cc1 (configuration not stated) | 16.8% | > 200 µM | > 0.01 µg/mL | > 0.01 µg/mL | > 0.01 µg/mL | –
OC[C@H]1NC[C@H](O)[C@@H](O)[C@@H]1O [DUVOGLUSTAT] | 52.5% | 109 µM | – | – | – | –
COC(=O)C(C=O)c1ccccc1 (configuration not stated) | 15.3% | > 200 µM | > 0.01 µg/mL | > 0.01 µg/mL | > 0.01 µg/mL | –
CCOC(=O)C(COC(=O)c1ccccc1)c1ccc(F)cc1 (configuration not stated) | 27.3% | > 200 µM | > 0.01 µg/mL | > 0.01 µg/mL | > 0.01 µg/mL | –
CCOC(=O)C(/C=N/NC(N)=S)c1ccc(C(F)(F)F)cc1 (configuration not stated) | 34% | 137 µM | 0.00805 µg/mL (≈ 0.0241 µM) | 0.00367 µg/mL (≈ 0.011 µM) | > 0.01 µg/mL | –
CCOC(=O)C(COC(=O)c1ccccc1OC(C)=O)c1ccc(F)cc1 (configuration not stated) | 15.8% | > 200 µM | > 0.01 µg/mL | > 0.01 µg/mL | > 0.01 µg/mL | –
CN(C)C(=N)NC(=N)N [METFORMIN] | – | – | – | – | – | inhibition in vivo at 100 mg/kg (Rattus norvegicus [5]): 7.86%; inhibition in vivo at 100 mg/kg (Rattus norvegicus [6]): 7.86%; inhibition in vivo at 100 mg/kg (Rattus norvegicus [7]): 7.86%; inhibition in vivo at 100 mg/kg (Rattus norvegicus [8]): 7.86%
CCC1=C(C)CN(C(=O)NCCc2ccc(S(=O)(=O)NC(=O)N[C@H]3CC[C@H](C)CC3)cc2)C1=O [GLIMEPIRIDE] | – | – | – | – | – | inhibition in vivo at 20 mg/kg (Rattus norvegicus [14]): 7.86%; inhibition in vivo at 20 mg/kg (Rattus norvegicus [15]): 7.86%; inhibition in vivo at 20 mg/kg (Rattus norvegicus [16]): 7.86%; inhibition in vivo at 20 mg/kg (Rattus norvegicus [17]): 7.86%
CCOC(=O)C(COC(=O)/C=C/c1ccc(OC)c(OC)c1)c1ccc(F)cc1 (configuration not stated) | 47.8% | 83.8 µM | > 0.01 µg/mL | > 0.01 µg/mL | > 0.01 µg/mL | inhibition in vivo at 360 mg/kg (Rattus norvegicus [13]): 7.86%; inhibition in vivo at 360 mg/kg (Rattus norvegicus [18]): 7.86%; inhibition in vivo at 360 mg/kg (Rattus norvegicus [19]): 19%; inhibition in vivo at 360 mg/kg (Rattus norvegicus [12]): 7.86%
CCOC(=O)C(COC(=O)c1ccccc1OC(C)=O)c1ccc(C(F)(F)F)cc1 (configuration not stated) | 14.1% | > 200 µM | > 0.01 µg/mL | > 0.01 µg/mL | > 0.01 µg/mL | –
COC(=O)C(/C=N/NC(N)=S)c1ccccc1 (configuration not stated) | 19.8% | > 200 µM | 0.00325 µg/mL (≈ 0.0129 µM) | 0.00321 µg/mL (≈ 0.0128 µM) | 0.00818 µg/mL (≈ 0.0325 µM) | –

Now from value to compound, other results behind:

inhibition [2] | IC50 [4] | Structure (SMILES) | IC50 (NCI-H1650) | IC50 [1] | IC50 [3] | other results
inactive | – | COC(=O)C(CO)c1ccc(OC)cc1 (configuration not stated) | > 0.01 µg/mL | > 0.01 µg/mL | > 0.01 µg/mL | –
inactive | – | CCOC(=O)C(CO)c1ccc(C(F)(F)F)cc1 (configuration not stated) | > 0.01 µg/mL | > 0.01 µg/mL | > 0.01 µg/mL | –
19.2% | > 200 µM | CCOC(=O)C(CO)c1ccc(F)cc1 (configuration not stated) | > 0.01 µg/mL | > 0.01 µg/mL | > 0.01 µg/mL | –
29.3% | 185 µM | COC(=O)C(C=O)c1ccc(C)cc1 (configuration not stated) | > 0.01 µg/mL | > 0.01 µg/mL | > 0.01 µg/mL | –
14.6% | > 200 µM | COC(=O)C(CO)c1ccc(C)cc1 (configuration not stated) | > 0.01 µg/mL | > 0.01 µg/mL | > 0.01 µg/mL | Activity (Rattus norvegicus [9]): 21.4 mmol/L; Activity (Rattus norvegicus [10]): 21.76 mmol/L; Activity (Rattus norvegicus [11]): 21.66 mmol/L; inhibition in vivo at 360 mg/kg (Rattus norvegicus [12]): 7.86%
28.7% | 186 µM | COC(=O)C(CO)c1ccccc1 (configuration not stated) | > 0.01 µg/mL | > 0.01 µg/mL | > 0.01 µg/mL | –
inactive | – | CCOC(=O)C(/C=N/OC)c1ccc(F)cc1 (configuration not stated) | > 0.01 µg/mL | > 0.01 µg/mL | > 0.01 µg/mL | –
12.9% | > 200 µM | COC(=O)C(COC(=O)c1ccccc1)c1ccccc1 (configuration not stated) | > 0.01 µg/mL | > 0.01 µg/mL | > 0.01 µg/mL | –
11.1% | > 200 µM | COC(=O)C(COC(=O)/C=C/c1ccc(OC)c(OC)c1)c1ccccc1 (configuration not stated) | > 0.01 µg/mL | > 0.01 µg/mL | > 0.01 µg/mL | Activity (Rattus norvegicus [9]): 20.76 mmol/L; inhibition in vivo at 360 mg/kg (Rattus norvegicus [13]): 7.86%; Activity (Rattus norvegicus [10]): 20.44 mmol/L; inhibition in vivo at 360 mg/kg (Rattus norvegicus [12]): 7.86%
20.8% | 190 µM | COC(=O)C(/C=N/NC(N)=S)c1ccc(C)cc1 (configuration not stated) | 0.00534 µg/mL (≈ 0.0201 µM) | > 0.01 µg/mL | 0.00522 µg/mL (≈ 0.0197 µM) | –
20.4% | 183 µM | CCOC(=O)C(C=O)c1ccc(F)cc1 (configuration not stated) | > 0.01 µg/mL | > 0.01 µg/mL | > 0.01 µg/mL | –
13.7% | > 200 µM | COC(=O)C(COC(=O)c1ccccc1OC(C)=O)c1ccccc1 (configuration not stated) | > 0.01 µg/mL | > 0.01 µg/mL | > 0.01 µg/mL | –
inactive | – | CCOC(=O)C(/C=N/OC)c1ccc(C(F)(F)F)cc1 (configuration not stated) | > 0.01 µg/mL | > 0.01 µg/mL | > 0.01 µg/mL | –
14.4% | > 200 µM | COC(=O)C(/C=N/NC(N)=S)c1ccc(OC)cc1 (configuration not stated) | 0.0025 µg/mL (≈ 0.00889 µM) | 0.0088 µg/mL (≈ 0.0313 µM) | > 0.01 µg/mL | –
65.3% | 46.8 µM | CCOC(=O)C(/C=N/NC(N)=S)c1ccc(F)cc1 (configuration not stated) | 0.00198 µg/mL (≈ 0.00699 µM) | 0.00191 µg/mL (≈ 0.00674 µM) | 0.00727 µg/mL (≈ 0.0257 µM) | inhibition in vivo at 360 mg/kg (Rattus norvegicus [13]): 7.86%; inhibition in vivo at 360 mg/kg (Rattus norvegicus [18]): 16.9%; Ki [20]: 65.4 µM; inhibition in vivo at 360 mg/kg (Rattus norvegicus [19]): 18.1%; inhibition in vivo at 360 mg/kg (Rattus norvegicus [12]): 10.3%
18.4% | > 200 µM | COC(=O)C(C=O)c1ccc(OC)cc1 (configuration not stated) | > 0.01 µg/mL | > 0.01 µg/mL | > 0.01 µg/mL | –

From ChEMBL document CHEMBL3784939, “Study on the synthesis and biological activities of α-substituted arylacetates derivatives” (Bioorg Med Chem Lett, 2016)
